# Experimental data from ChEMBL document CHEMBL3108667, “Potent and selective inhibitors of CDPK1 from T. gondii and C. parvum based on a 5-aminopyrazole-4-carboxamide scaffold” (ACS Med Chem Lett, 2014).
# Experiments:
# cells = conditions: Homo sapiens, CRL8155
# [1] = biological target: T1, Calmodulin-domain protein kinase 1 (Toxoplasma gondii, UniProt Q9BJF5)
# T1 sequence (Q9BJF5 whole entry): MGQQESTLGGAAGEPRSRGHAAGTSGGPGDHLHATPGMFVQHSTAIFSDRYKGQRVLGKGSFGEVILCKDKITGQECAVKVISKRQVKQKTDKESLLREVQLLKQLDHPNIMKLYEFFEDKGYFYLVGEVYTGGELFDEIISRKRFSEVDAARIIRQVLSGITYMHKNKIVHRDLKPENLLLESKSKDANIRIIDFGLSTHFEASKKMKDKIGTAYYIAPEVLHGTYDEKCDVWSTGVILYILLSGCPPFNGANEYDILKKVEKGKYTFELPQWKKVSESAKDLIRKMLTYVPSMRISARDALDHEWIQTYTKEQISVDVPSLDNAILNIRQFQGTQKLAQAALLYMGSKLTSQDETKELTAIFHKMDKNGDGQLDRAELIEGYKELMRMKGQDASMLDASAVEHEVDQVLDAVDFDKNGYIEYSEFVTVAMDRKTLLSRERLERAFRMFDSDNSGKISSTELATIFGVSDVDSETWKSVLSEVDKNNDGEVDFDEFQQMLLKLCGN
# in vivo [2] = conditions: mouse, po, 10 mg/kg
# in vivo [3] = conditions: mouse, plasma, po, 10 mg/kg
SMILES,EC50 (cells) [µM],other results
CC(C)(C)n1nc(-c2cnc3ccccc3c2)c(C(N)=O)c1N,> 40,
COc1ccc2cc(-c3nn(C(C)(C)C)c(N)c3C(N)=O)ccc2c1,> 40,
CC(C)(C)n1nc(-c2ccc3c(N)n[nH]c3c2)c(C(N)=O)c1N,,IC50 [1]: 0.04 µM
CC(C)(C)Cn1nc(-c2ccc3ccccc3c2)c(C(N)=O)c1N,> 40,
CCOc1ccc2cc(-c3nn(C(C)(C)C)c(N)c3C(N)=O)cnc2c1,> 30,Cmax at 1 h (in vivo [2]): 10 µM; AUC (in vivo [3]): 41.7 µM·h

# The next lines start with results.
EC50 (cells) [µM],SMILES,other results
> 30,NC(=O)c1c(-c2ccc3ccccc3c2)nn(CC(F)(F)F)c1N,
> 30,CCOc1ccc2cc(-c3nn(C(C)(C)C)c(N)c3C(N)=O)ccc2c1,
